# Assay results taken from patent publication US20110159479A1, “GENETIC POLYMORPHISMS IN THE CYTOCHROME P450 GENE WITH CLOPIDOGREL RESISTANCE” (Industry-University Cooperation Foundation Yonsei University, priority 2009, published 2011).
# Key:
# [1] = VerifyNow P2Y12 platelet-function assay in CAD patients with drug-eluting stents on clopidogrel; type: in vivo, human
# Description: (§1) From October 2006 to July 2007, 450 consecutive patients who underwent successful percutaneous coronary intervention (PCI) with drug-eluting stents (DES) were randomly assigned to treatment with dual anti-platelet regimens (aspirin plus clopidogrel, n=225) or triple antiplatelet regimens (aspirin plus clopidogrel plus cilostazol, n=225). Inclusion criteria were: symptomatic coronary artery disease (CAD) or documented myocardial ischemia (by treadmill exercise testing or sestamibi scan); angiographic evidence of 50% diameter stenosis and post procedure Thromobolysis In Myocardial Infarction (TIMI) flow grade 3. Exclusion criteria were: contraindication to antiplatelet agents; previous allergy or intolerance of aspirin or clopidogrel; treatment with warfarin; active bleeding; known platelet dysfunction; abnormal platelet count (<100,000/mm^3). Patients received a 300 mg loading dose of clopidogrel at least 12 hours before the stenting. Stents were deployed according to standard techniques. The maintenance dose for each antiplatelet agent was 100 mg once a day for aspirin, 75 mg once a day for clopidogrel, and 100 mg twice a day for cilostazol. Among the enrolled patients, 387 patients were analyzed for clopidogrel resistance by VerifyNow P2Y12 system (Accumetrics, San Diego, Calif.), and blood sampling for genetic analysis.
# (§2) The VerifyNow P2Y12 system is a rapid platelet-function, cartridge based assay designed to directly measure the effects of clopidogrel on the P2Y12 receptor. Results are expressed as P2Y12 reaction units (PRUs) and percentage inhibition. PRU reports the amount of P2Y12 receptor mediated aggregation.
# (§3) Values were expressed as mean±SD. Chi-square test for goodness of fit was used to verify agreement with Hardy-Weinberg equilibrium (HWE) using Fisher's exact test. Comparison of discrete variables was performed using the Chi-square test analysis or Fisher's exact test. Comparison of continuous variables between the two study groups was performed using the Student's t-test. Multivariate logistic regression analysis was performed to determine the independent association of CYP gene polymorphisms with clopidogrel resistance. Odds ratios (ORs) were calculated with 95% confidence intervals (CIs) for the relative risk of clopidogrel resistance related to genotypes. Statistical analysis was performed with SPSS 15.0 (SPSS Inc, Chicago, Ill.). All values of P<0.05 were considered statistically significant.
# [2] = molecular target: T1, P2Y12 receptor (Homo sapiens, UniProt Q9H244); experiment: as above; type: in vivo; settings: for % inhibition of platelet activity: mean ± SD; for Rate of clopidogrel resistance: subjects with CYP2C19*3 A allele
# T1 construct: PRU reports the amount of P2Y12 receptor mediated aggregation; from tissue; host or cells: platelets in blood of patients (VerifyNow P2Y12 system, Accumetrics)
# Description: as §1, §2, §3
# [3] = patients following coronary stenting; previous reports; cited from earlier work
# T1 sequence (Q9H244 whole entry): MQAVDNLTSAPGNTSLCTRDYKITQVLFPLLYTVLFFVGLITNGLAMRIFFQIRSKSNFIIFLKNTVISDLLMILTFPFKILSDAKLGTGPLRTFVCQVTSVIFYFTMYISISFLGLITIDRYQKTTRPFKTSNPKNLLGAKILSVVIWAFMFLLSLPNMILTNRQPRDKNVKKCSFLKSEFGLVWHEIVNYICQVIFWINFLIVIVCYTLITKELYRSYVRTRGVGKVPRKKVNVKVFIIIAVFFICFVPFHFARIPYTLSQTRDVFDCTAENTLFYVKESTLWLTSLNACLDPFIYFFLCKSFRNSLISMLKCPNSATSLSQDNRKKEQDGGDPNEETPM
compound,measurement,setting,value
O=C1CCc2cc(OCCCCc3nnnn3C3CCCCC3)ccc2N1 [Cilostazol],"Patients on cilostazol, number (percentage of group)",[1]; clopidogrel resistant group (Resistance),32 (28.6%)
same,"Patients on cilostazol, number (percentage of group)",[1]; clopidogrel responsive group (No resistance),158 (57.5%)
"COC(=O)[C@H](c1ccccc1Cl)N1CCc2sccc2C1 [clopidogrel, (+)-(S)-methyl 2-(2-chlorophenyl)-2-(6,7-dihydrothieno[3,2-c]pyridin-5(4H)-yl)acetate]","Clopidogrel resistance (percent inhibition <20%), proportion of patients","[2]; 387 CAD patients with DES insertion, 112 patients",28.9%
same,% inhibition of platelet activity,"[2]; CYP1A1 rs1048943, codominant, genotype AA (211)",32.5 ± 22.3%
same,% inhibition of platelet activity,"[2]; CYP1A1 rs1048943, codominant, genotype AG (153)",37.7 ± 24.2%
same,% inhibition of platelet activity,"[2]; CYP1A1 rs1048943, codominant, genotype GG (20)",38.7 ± 24.4%
same,% inhibition of platelet activity,"[2]; CYP1A1 rs1048943, dominant, genotype AA (210)",32.5 ± 22.3%
same,% inhibition of platelet activity,"[2]; CYP1A1 rs1048943, dominant, genotype AG/GG (170)",37.8 ± 24.2%
same,% inhibition of platelet activity,"[2]; CYP1A1 rs1048943, recessive, genotype AA/AG (361)",34.7 ± 23.2%
same,% inhibition of platelet activity,"[2]; CYP1A1 rs1048943, recessive, genotype GG (19)",38.7 ± 24.4%
same,% inhibition of platelet activity,"[2]; CYP2C19*2 rs4244285, codominant, genotype AA (39)",30.9 ± 21.7%
same,% inhibition of platelet activity,"[2]; CYP2C19*2 rs4244285, codominant, genotype GA (133)",32.5 ± 21.6%
same,% inhibition of platelet activity,"[2]; CYP2C19*2 rs4244285, codominant, genotype GG (210)",37.2 ± 24.5%
same,% inhibition of platelet activity,"[2]; CYP2C19*2 rs4244285, dominant, genotype GA/AA (172)",32.1 ± 21.6%
same,% inhibition of platelet activity,"[2]; CYP2C19*2 rs4244285, dominant, genotype GG (210)",37.2 ± 24.5%
same,% inhibition of platelet activity,"[2]; CYP2C19*2 rs4244285, recessive, genotype AA (39)",30.9 ± 21.7%
same,% inhibition of platelet activity,"[2]; CYP2C19*2 rs4244285, recessive, genotype GG/GA (343)",35.3 ± 23.5%
same,% inhibition of platelet activity,"[2]; CYP2C19*3 rs4986893, codominant, genotype AA (2)",17.0 ± 24.0%
same,% inhibition of platelet activity,"[2]; CYP2C19*3 rs4986893, codominant, genotype GA (68)",24.9 ± 20.1%
same,% inhibition of platelet activity,"[2]; CYP2C19*3 rs4986893, codominant, genotype GG (316)",36.9 ± 23.4%
same,% inhibition of platelet activity,"[2]; CYP2C19*3 rs4986893, dominant, genotype GA/AA (70)",24.6 ± 20.0%
same,% inhibition of platelet activity,"[2]; CYP2C19*3 rs4986893, dominant, genotype GG (316)",36.9 ± 23.4%
same,% inhibition of platelet activity,"[2]; CYP2C19*3 rs4986893, recessive, genotype AA (2)",17.0 ± 24.0%
same,% inhibition of platelet activity,"[2]; CYP2C19*3 rs4986893, recessive, genotype GG/GA (384)",34.8 ± 23.3%
same,Rate of clopidogrel resistance,[2]; dual regimen therapy (aspirin plus clopidogrel),57.6%
same,Rate of clopidogrel resistance,[2]; triple regimen therapy (aspirin plus clopidogrel plus cilostazol),37.1%
same,Prevalence of clopidogrel nonresponsiveness,[3],5-44%
